Assay results published in patent US4749683A, “Inhibition of gastric acid secretion with alpha-transforming growth factor” (President and Fellows of Harvard College, priority 1986, dated 1988).
Several values for one entry are separate records, joined by “and”; a condition that tells them apart may be missing. Identical values can stand only once.

System: guinea pig gastric mucosa
Test: Histamine-induced gastric acid secretion of isolated guinea pig gastric mucosa in Ussing chambers, pH stat method
Assay type: cell-based, guinea pigs
Conditions: for Ratio of pre- and post histamine treatment acid secretion (mean SEM): relative to 30 minute period prior to histamine
Method: Unfasted female guinea pigs (205-330 g) were killed by cervical dislocation and the stomachs were removed. The antrum was discarded and the stomach was rinsed clean with several washes of mammalian Ringer's solution at 37° C. The stomach was hemisected along the greater and lesser curvatures and the mucosa was separated from the seromuscularis with a pair of fine forceps. Mucosae from both sides were stretched and separately mounted in Lucite Ussing chambers (diameter 1.6 cm) and the assembled chambers were connected to water jacketted gas-lift incubators. The nutrient (submucosal) surface was bathed in 15 ml of a solution containing: 122 mM NaCl, 25.0 mM NaHCO3, 5.0 mM KCl, […] MgSO4, 2.0 mM CaCl2, 1.0 mM KH2 PO4, 20.0 mM glucose, and 100 ug/ml gentamycin sulphate (Garamycin). The solution was gassed with 95% O2 -5% CO2 bubbled through distilled water which maintained pH at 7.45-7.55. The luminal (mucosal) surface was bathed in 15 ml unbuffered saline (150 mM NaCl) which was gassed with 100% O2 passed through 500 mM NaOH to remove CO2. Gastric acid secretion was measured by the pH stat method. pH was held at 4.5 with a pH stat coupled to an autoburette and acid secretion was determined by the amount of NaOH necessary to maintain pH in the luminal solution. All solutions were maintained at 37° C. with a heated water circulator. Tissues were initially allowed to stabilize in the chambers a minimum of 2 hours. Saline with or without alpha TGF (60 ng/ml final concentration) was then added to the nutrient bath and the basal rate of acid secretion was monitored for 30 minutes. Twenty-one paired sets of tissue specimens from the same animal were employed, one receiving alpha-TGF, the other serving as control. All tissues were then treated with histamine (10^-4 M) and acid secretion was measured for an additional 3 hours. When calculated in terms of absolute levels of acid secretion, differences between control and TGF-treated tissues were significant (p<0.05) at 120, 150, and 180 minutes.

alpha-transforming growth factor [TGF] was tested, and the “Ratio of pre- and post histamine treatment acid secretion (mean SEM)” value (from here on “Ratio … (mean SEM)”) (0 min., alpha TGF 60 ng/ml) was 1.00 ± 0.00, the “Gastric acid secretion (mean ± SEM)” value (0 time, basal rate before histamine, alpha TGF 60 ng/ml in nutrient bath, n=21) was 1.80 ± 0.21 uEq./cm^2 /hr and the “Gastric acid secretion (mean ± SEM)” value (30 min. after histamine 10^-4 M, alpha TGF 60 ng/ml) was 2.09 ± 0.24 uEq./cm^2 /hr. For the same substance, the “Ratio … (mean SEM)” value (30 min., alpha TGF 60 ng/ml) was 1.17 ± 0.04, the “Effect on the basal rate of acid secretion” value (30 minutes before histamine, alpha TGF 60 ng/ml) was “no effect” and the “Ratio … (mean SEM)” value (60 min. (one hour), alpha TGF 60 ng/ml) was 1.48 ± 0.11 and 1.49±0.11. For the same substance, the “Gastric acid secretion (mean ± SEM)” value (60 min. after histamine 10^-4 M, alpha TGF 60 ng/ml) was 2.62 ± 0.35 uEq./cm^2 /hr, the “Gastric acid secretion (mean ± SEM)” value (90 min. after histamine 10^-4 M, alpha TGF 60 ng/ml) was 2.97 ± 0.38 uEq./cm^2 /hr and the “Ratio … (mean SEM)” value (90 min., alpha TGF 60 ng/ml) was 1.67 ± 0.12. For the same substance, the “Ratio … (mean SEM)” value (120 min. (two hours), alpha TGF 60 ng/ml) was 1.68 ± 0.11, the “Gastric acid secretion (mean ± SEM)” value (120 min. after histamine 10^-4 M, alpha TGF 60 ng/ml) was 2.97 ± 0.35 uEq./cm^2 /hr and the “Gastric acid secretion (mean ± SEM)” value (150 min. after histamine 10^-4 M, alpha TGF 60 ng/ml) was 3.04 ± 0.37 uEq./cm^2 /hr. For the same substance, the “Ratio … (mean SEM)” value (150 min., alpha TGF 60 ng/ml) was 1.73 ± 0.12, the “Ratio … (mean SEM)” value (180 min. (three hours), alpha TGF 60 ng/ml) was 1.81 ± 0.27 and the “Gastric acid secretion (mean ± SEM)” value (180 min. after histamine 10^-4 M, alpha TGF 60 ng/ml) was 3.16 ± 0.68 uEq./cm^2 /hr.
